Test systems include EKVX NSCLC; HT29 colon; MALME-3M melanoma; MDA-MB-231 breast; NCI-H226 lung; OVCAR-8 ovarian; PC-3 prostate; SK-MEL-2 melanoma; UACC-257 melanoma; UACC-62 melanoma.
Common to all, as to assay: growth of human tumour cells (NCI), 48 h

SMILES strings stand for the structures.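 Grown in 96-well plates, cells were treated for 48 hours with each compound at five concentrations. Insufficient inhibition: endpoint recorded as highest concentration tested. At the GI50, growth is halved. TGI denotes the concentration required for complete inhibition of growth.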

For `CCOC(=O)Nc1ccc(-c2nc(-c3cccc(OC)c3)c(-c3ccnc(Br)c3)[nH]2)cc1`, the GI50 is 2.45 µM in the experiment with EKVX NSCLC; 3.45 µM in the experiment on HT29 colon; 1.98 µM in the experiment on MALME-3M melanoma; 3.27 µM with MDA-MB-231 breast; 2.21 µM in the experiment on NCI-H226 lung; 2.98 µM in the experiment with OVCAR-8 ovarian. Also, the GI50 in the experiment with PC-3 prostate is 2.52 µM; in the experiment on SK-MEL-2 melanoma it was 2.58 µM; with UACC-257 melanoma, 2.68 µM; with UACC-62 melanoma, 1.89 µM. Besides, the TGI was 8.8 µM with EKVX NSCLC; more than 100 µM in the experiment on HT29 colon; 5.73 µM with MALME-3M melanoma; more than 100 µM with MDA-MB-231 breast; 7.78 µM in the experiment with NCI-H226 lung; more than 100 µM with OVCAR-8 ovarian. The TGI in the experiment on PC-3 prostate was 8.9 µM; in the experiment with SK-MEL-2 melanoma, 6.69 µM; with UACC-257 melanoma, 7.9 µM; in the experiment with UACC-62 melanoma, 4.18 µM.
On to `Cn1c(=S)c2[nH]c(SCCN3CCCC3)nc2n(C)c1=O`, for which the TGI with EKVX NSCLC, in the experiment on HT29 colon, in the experiment on MALME-3M melanoma, in the experiment on MDA-MB-231 breast, with NCI-H226 lung and in the experiment with OVCAR-8 ovarian was more than 100 µM each time. Besides, the TGI in the experiment with PC-3 prostate, in the experiment on SK-MEL-2 melanoma, in the experiment with UACC-257 melanoma and in the experiment on UACC-62 melanoma was more than 100 µM each time.
Regarding `CCCCC#CC#Cc1cccc(=O)o1`, the GI50 was 49 µM in the experiment on EKVX NSCLC; 13.5 µM with HT29 colon; 14.1 µM with MALME-3M melanoma; 19.5 µM in the experiment on MDA-MB-231 breast; 16.3 µM in the experiment on NCI-H226 lung; 26.4 µM in the experiment on OVCAR-8 ovarian. The GI50 in the experiment with PC-3 prostate is 31 µM; in the experiment with SK-MEL-2 melanoma, 38.6 µM; in the experiment with UACC-257 melanoma, 22.1 µM; with UACC-62 melanoma it was 16.1 µM. The TGI is more than 100 µM in the experiment on EKVX NSCLC; 36.1 µM in the experiment on HT29 colon; 27.6 µM with MALME-3M melanoma; 43.2 µM with MDA-MB-231 breast; 38.3 µM in the experiment with NCI-H226 lung; 62.9 µM in the experiment with OVCAR-8 ovarian. In addition, the TGI in the experiment with PC-3 prostate is more than 100 µM; in the experiment with SK-MEL-2 melanoma it was 69.3 µM; in the experiment on UACC-257 melanoma it was 46.7 µM; in the experiment on UACC-62 melanoma it was 32.8 µM.
`COC1=Nc2ccccc2S(=O)(=O)C=C1`: the TGI is 32.1 µM in the experiment on EKVX NSCLC; 26.7 µM in the experiment with HT29 colon; 6.84 µM in the experiment with MALME-3M melanoma; 27.2 µM in the experiment on MDA-MB-231 breast; more than 100 µM in the experiment on NCI-H226 lung; 19.5 µM in the experiment with OVCAR-8 ovarian. The TGI with PC-3 prostate turned out to be 28.7 µM; with SK-MEL-2 melanoma, 35.8 µM; in the experiment on UACC-257 melanoma it was 20.5 µM; in the experiment with UACC-62 melanoma, 37.4 µM. Further, the GI50 in the experiment with UACC-257 melanoma is 0.671 µM.
For the compound `Cc1nc(N)sc1C(=O)Nc1cc(C(=O)NCCCN(C)C)n(C)c1`, the GI50 in the experiment with EKVX NSCLC, in the experiment with HT29 colon, in the experiment on MALME-3M melanoma, in the experiment on MDA-MB-231 breast, with NCI-H226 lung and in the experiment with OVCAR-8 ovarian was more than 100 µM throughout. Besides, the GI50 with PC-3 prostate, in the experiment on SK-MEL-2 melanoma, with UACC-257 melanoma and with UACC-62 melanoma was more than 100 µM each time. Besides, the TGI with EKVX NSCLC, in the experiment on HT29 colon, in the experiment on MALME-3M melanoma, with MDA-MB-231 breast, in the experiment on NCI-H226 lung and in the experiment on OVCAR-8 ovarian was more than 100 µM throughout. Moreover, the TGI in the experiment on PC-3 prostate, in the experiment on SK-MEL-2 melanoma, in the experiment with UACC-257 melanoma and with UACC-62 melanoma was more than 100 µM in each case.
For `O=C(OCc1ccc2c(Cl)cc(Cl)c(O)c2n1)c1cc2ccccc2[nH]1`, the GI50 in the experiment on EKVX NSCLC was 1.49 µM; in the experiment on HT29 colon it was 0.32 µM; in the experiment on MALME-3M melanoma it was 1.26 µM; in the experiment with MDA-MB-231 breast, 0.422 µM; in the experiment on NCI-H226 lung it was 1.48 µM; in the experiment with OVCAR-8 ovarian it was 0.818 µM. The GI50 in the experiment with PC-3 prostate is 0.407 µM; in the experiment on SK-MEL-2 melanoma, 1.47 µM; with UACC-257 melanoma, 0.88 µM; with UACC-62 melanoma, 0.478 µM. The TGI was 3 µM with EKVX NSCLC; 1.03 µM in the experiment with HT29 colon; 2.6 µM with MALME-3M melanoma; 1.52 µM with MDA-MB-231 breast; 3.07 µM with NCI-H226 lung; 3.05 µM with OVCAR-8 ovarian. Further, the TGI came to 0.936 µM in the experiment with PC-3 prostate, 3.25 µM in the experiment on SK-MEL-2 melanoma, 3 µM in the experiment with UACC-257 melanoma and 1.7 µM with UACC-62 melanoma.
In the case of `CN(CCCl)c1ccc(/C=C/C2=[N+](C)c3ccccc3C2(C)C)cc1`, the GI50 in the experiment with EKVX NSCLC is 0.863 µM; with HT29 colon, 0.307 µM; in the experiment with MALME-3M melanoma it was 0.575 µM; in the experiment with MDA-MB-231 breast, 0.579 µM; with NCI-H226 lung it was 1.21 µM; with OVCAR-8 ovarian, 0.353 µM. Moreover, the GI50 is 0.243 µM with PC-3 prostate, 1.33 µM in the experiment with SK-MEL-2 melanoma, 0.657 µM in the experiment with UACC-257 melanoma and 0.482 µM in the experiment with UACC-62 melanoma. Further, the TGI with EKVX NSCLC worked out at 14.9 µM; with HT29 colon, 11.2 µM; in the experiment on MALME-3M melanoma, 4.3 µM; in the experiment on MDA-MB-231 breast, 5.59 µM; in the experiment on NCI-H226 lung, 14.9 µM; in the experiment on OVCAR-8 ovarian, 12 µM. Moreover, the TGI is 10.6 µM with PC-3 prostate, 5.62 µM in the experiment with SK-MEL-2 melanoma, 7.57 µM with UACC-257 melanoma and 7.68 µM in the experiment on UACC-62 melanoma.
In the case of `CS(=O)(=O)CCNCc1ccc(-c2ccc3ncnc(Nc4ccc(OCc5ccccc5)c(Cl)c4)c3c2)o1`, the GI50 is 0.132 µM with EKVX NSCLC; 3.53 µM in the experiment on HT29 colon; 5.18 µM in the experiment on MALME-3M melanoma; 4.3 µM with MDA-MB-231 breast; 4.74 µM in the experiment on NCI-H226 lung; 8.1 µM in the experiment with OVCAR-8 ovarian. In addition, the GI50 is 7.41 µM in the experiment with PC-3 prostate, 4.62 µM in the experiment with SK-MEL-2 melanoma, 3.92 µM in the experiment with UACC-257 melanoma and 4.11 µM in the experiment on UACC-62 melanoma. In addition, the TGI was more than 18.7 µM in the experiment on EKVX NSCLC; 7.98 µM in the experiment with HT29 colon; 10.4 µM in the experiment with MALME-3M melanoma; 9.31 µM in the experiment with MDA-MB-231 breast; more than 22.9 µM in the experiment on NCI-H226 lung; more than 25 µM in the experiment with OVCAR-8 ovarian. In addition, the TGI was 24.2 µM in the experiment with PC-3 prostate, 9.71 µM in the experiment with SK-MEL-2 melanoma, 7.74 µM in the experiment on UACC-257 melanoma and 8.15 µM in the experiment on UACC-62 melanoma.
On to `C=C1C(=O)O[C@H]2[C@H]1CC/C(COC(=O)c1ccc(C#N)cc1)=C\CC[C@@]1(C)O[C@@H]21`, for which the GI50 with EKVX NSCLC is 2.26 µM; with HT29 colon it was 1.62 µM; in the experiment with MALME-3M melanoma it was 2.04 µM; in the experiment with MDA-MB-231 breast it was 2.2 µM; in the experiment on NCI-H226 lung, 2.26 µM; in the experiment on OVCAR-8 ovarian, 2.75 µM. Besides, the GI50 is 3.97 µM in the experiment on PC-3 prostate, 1.98 µM in the experiment with SK-MEL-2 melanoma, 1.69 µM in the experiment on UACC-257 melanoma and 1.95 µM in the experiment on UACC-62 melanoma. Besides, the TGI in the experiment on EKVX NSCLC is 6.85 µM; in the experiment with HT29 colon it was 4.02 µM; with MALME-3M melanoma, 4.16 µM; with MDA-MB-231 breast it was 5.24 µM; with NCI-H226 lung, 7.6 µM; in the experiment on OVCAR-8 ovarian, 11.2 µM. Further, the TGI was determined as 15.6 µM in the experiment on PC-3 prostate, 4.54 µM in the experiment with SK-MEL-2 melanoma, 4.1 µM in the experiment with UACC-257 melanoma and 4.33 µM with UACC-62 melanoma.
For the compound `CCCCCCCCCCCCOC1C(CNC(=O)C2OC3OC(C)(C)OC3C2NC(=O)CN2CCCCCC2)OC2OC(C)(C)OC21` (stereo unspecified), the GI50 is 8.15 µM with EKVX NSCLC; 1.87 µM with HT29 colon; 1.99 µM in the experiment on MALME-3M melanoma; 9.7 µM in the experiment with MDA-MB-231 breast; 16.7 µM with NCI-H226 lung; 11 µM in the experiment on OVCAR-8 ovarian. In addition, the GI50 in the experiment with PC-3 prostate was 4.57 µM; with SK-MEL-2 melanoma it was 5.69 µM; with UACC-257 melanoma, 3.14 µM; with UACC-62 melanoma, 1.83 µM. The TGI in the experiment on EKVX NSCLC amounted to 20.7 µM; in the experiment on HT29 colon, 3.74 µM; with MALME-3M melanoma, 4.1 µM; in the experiment on MDA-MB-231 breast, 23 µM; in the experiment with NCI-H226 lung it was 38.1 µM; in the experiment on OVCAR-8 ovarian, 25.5 µM. The TGI in the experiment on PC-3 prostate amounted to 15.8 µM; in the experiment with SK-MEL-2 melanoma, 12 µM; with UACC-257 melanoma, 8.75 µM; in the experiment on UACC-62 melanoma, 3.48 µM.
As for `O=C1CCc2c(sc3[nH]c(=S)n(Cc4ccccc4)c(=O)c23)C1`, the GI50 in the experiment on EKVX NSCLC was 3.58 µM; with HT29 colon, 3.84 µM; in the experiment with MALME-3M melanoma, 4.53 µM; in the experiment on MDA-MB-231 breast, 4.54 µM; in the experiment with NCI-H226 lung it was 4.05 µM; in the experiment with OVCAR-8 ovarian it was 3.19 µM. Moreover, the GI50 was 0.616 µM in the experiment with PC-3 prostate, 2.49 µM with SK-MEL-2 melanoma, 2.36 µM with UACC-257 melanoma and 2.54 µM with UACC-62 melanoma. Moreover, the TGI is more than 100 µM with EKVX NSCLC; 27 µM in the experiment on HT29 colon; more than 100 µM in the experiment with MALME-3M melanoma; more than 100 µM with MDA-MB-231 breast; more than 100 µM with NCI-H226 lung; more than 100 µM in the experiment on OVCAR-8 ovarian. Besides, the TGI is more than 100 µM in the experiment on PC-3 prostate, 5.81 µM with SK-MEL-2 melanoma, 7.06 µM with UACC-257 melanoma and 13.2 µM in the experiment on UACC-62 melanoma.
With `C/C(Cc1ccc(Cl)cc1)=C(/c1ccc(Cl)cc1)c1ccc(OCCN(C)C)cc1`, the GI50 in the experiment with EKVX NSCLC was 4.75 µM; in the experiment on HT29 colon, 1.36 µM; with MALME-3M melanoma it was 3.68 µM; in the experiment with MDA-MB-231 breast it was 4.27 µM; in the experiment on NCI-H226 lung, 4.99 µM; with OVCAR-8 ovarian, 5.75 µM. Also, the GI50 was 4.34 µM in the experiment on PC-3 prostate, 5.69 µM with SK-MEL-2 melanoma, 4.24 µM in the experiment with UACC-257 melanoma and 5.19 µM in the experiment with UACC-62 melanoma. Moreover, the TGI in the experiment with EKVX NSCLC was found to be 9.22 µM; in the experiment with HT29 colon, 5.85 µM; with MALME-3M melanoma, 8.63 µM; in the experiment with MDA-MB-231 breast, 8.71 µM; in the experiment on NCI-H226 lung, 10.5 µM; in the experiment on OVCAR-8 ovarian it was 13.7 µM. For the same compound, the TGI was determined as 9.21 µM with PC-3 prostate, 11.4 µM in the experiment with SK-MEL-2 melanoma, 9.38 µM in the experiment on UACC-257 melanoma and 9.75 µM in the experiment with UACC-62 melanoma.

The record behind these values is PubChem BioAssay (NCI).
